In ChEMBL document CHEMBL3885881, “DrugMatrix”:

Organism: Rattus norvegicus
Assay: DrugMatrix - Regimen: Daily Repeat
Type: toxicity, organism-based, Sprague-Dawley
Set-up: regimen Daily Repeat, gender Male, age 6-8 weeks
Settings: in vivo, po, route oral GAVAGE, vehicle .5 % CMC; for ABSOLUTE BASOPHIL / ABSOLUTE EOSINOPHIL / ABSOLUTE LYMPHOCYTE / ABSOLUTE MONOCYTE / ABSOLUTE SEGMENTED NEUTROPHIL / BASOPHIL / EOSINOPHIL / ERYTHROCYTE COUNT / HEMATOCRIT / HEMOGLOBIN / LEUKOCYTE COUNT / LYMPHOCYTE / MEAN CORPUSCULAR HEMOGLOBIN / MEAN CORPUSCULAR HEMOGLOBIN CONCENTRATION / MEAN CORPUSCULAR VOLUME / MONOCYTE / NEUTROPHIL / NUCLEATED RED BLOOD CELLS / PLATELET COUNT: tissue Blood; for ALANINE AMINOTRANSFERASE / ALBUMIN / ALKALINE PHOSPHATASE / ASPARTATE AMINOTRANSFERASE / BLOOD UREA NITROGEN / CARBON DIOXIDE / CHLORIDE / CHOLESTEROL / CREATINE PHOSPHOKINASE / CREATININE / GLUCOSE / LACTATE DEHYDROGENASE / LIPASE / PHOSPHORUS / POTASSIUM / SODIUM / TOTAL BILIRUBIN / TOTAL PROTEIN / URIC ACID: tissue Plasma
[1] = 0 mg/kg, 72 h, dose level Control, time 3 day
[2] = 0 mg/kg, 120 h, dose level Control, time 5 day
[3] = 88 mg/kg, 72 h, dose level Low, time 3 day

## CC(C)[C@H](N)C(=O)OCCOCn1cnc2c(=O)[nH]c(N)nc21 [VALACYCLOVIR]
[1]
  ABSOLUTE BASOPHIL: 0 CELLS/uL
  ABSOLUTE EOSINOPHIL: 171.33 CELLS/uL
  ABSOLUTE LYMPHOCYTE: 13776.5 CELLS/uL
  ABSOLUTE MONOCYTE: 180.83 CELLS/uL
  ABSOLUTE SEGMENTED NEUTROPHIL: 1121.33 CELLS/uL
  BASOPHIL: 0%
  EOSINOPHIL: 1%
  ERYTHROCYTE COUNT: 5.56 x10E6/uL
  HEMATOCRIT: 34.75%
  HEMOGLOBIN: 13.68 G/DL
  LEUKOCYTE COUNT: 15.25 x10E3/uL
  LYMPHOCYTE: 90.17%
  MEAN CORPUSCULAR HEMOGLOBIN: 24.6 pg
  MEAN CORPUSCULAR HEMOGLOBIN CONCENTRATION: 39.4 G/DL
  MEAN CORPUSCULAR VOLUME: 62.48 fL
  MONOCYTE: 1.17%
  NEUTROPHIL: 7.67%
  NUCLEATED RED BLOOD CELLS: 0 /100WBC
  PLATELET COUNT: 1342 x10E3/uL
  ALANINE AMINOTRANSFERASE: 49.67 u/L
  ALBUMIN: 4.15 G/DL
  ALKALINE PHOSPHATASE: 346.83 u/L
  ASPARTATE AMINOTRANSFERASE: 108.17 u/L
  BLOOD UREA NITROGEN: 17.33 mg/dL
  CARBON DIOXIDE: 25 mmol/L
  CHLORIDE: 100.83 MEQ/L
  CHOLESTEROL: 66.83 mg/dL
  CREATINE PHOSPHOKINASE: 788 u/L
  CREATININE: 0.18 mg/dL
  GLUCOSE: 151.67 mg/dL
  LACTATE DEHYDROGENASE: 982.5 u/L
  LIPASE: 10.33 u/L
  PHOSPHORUS: 11.23 mg/dL
  POTASSIUM: 6.37 MEQ/L
  SODIUM: 141.02 MEQ/L
  TOTAL BILIRUBIN: 0.18 mg/dL
  TOTAL PROTEIN: 5.9 G/DL
  URIC ACID: 1.8 mg/dL
[2]
  ABSOLUTE BASOPHIL: 0 CELLS/uL
  ABSOLUTE EOSINOPHIL: 69 CELLS/uL
  ABSOLUTE LYMPHOCYTE: 13632.83 CELLS/uL
  ABSOLUTE MONOCYTE: 139.83 CELLS/uL
  ABSOLUTE SEGMENTED NEUTROPHIL: 1225 CELLS/uL
  BASOPHIL: 0%
  EOSINOPHIL: 0.33%
  ERYTHROCYTE COUNT: 5.52 x10E6/uL
  HEMATOCRIT: 33.98%
  HEMOGLOBIN: 13.22 G/DL
  LEUKOCYTE COUNT: 15.07 x10E3/uL
  LYMPHOCYTE: 90.83%
  MEAN CORPUSCULAR HEMOGLOBIN: 23.95 pg
  MEAN CORPUSCULAR HEMOGLOBIN CONCENTRATION: 38.9 G/DL
  MEAN CORPUSCULAR VOLUME: 61.53 fL
  MONOCYTE: 0.83%
  NEUTROPHIL: 8%
  NUCLEATED RED BLOOD CELLS: 0 /100WBC
  PLATELET COUNT: 1196 x10E3/uL
  ALANINE AMINOTRANSFERASE: 49.17 u/L
  ALBUMIN: 4.2 G/DL
  ALKALINE PHOSPHATASE: 352.33 u/L
  ASPARTATE AMINOTRANSFERASE: 89.67 u/L
  BLOOD UREA NITROGEN: 18 mg/dL
  CARBON DIOXIDE: 27.67 mmol/L
  CHLORIDE: 101 MEQ/L
  CHOLESTEROL: 72.83 mg/dL
  CREATINE PHOSPHOKINASE: 417.5 u/L
  CREATININE: 0.18 mg/dL
  GLUCOSE: 150.5 mg/dL
  LACTATE DEHYDROGENASE: 517.33 u/L
  LIPASE: 9 u/L
  PHOSPHORUS: 11.87 mg/dL
  POTASSIUM: 6.57 MEQ/L
  SODIUM: 143.62 MEQ/L
  TOTAL BILIRUBIN: 0.2 mg/dL
  TOTAL PROTEIN: 6.08 G/DL
  URIC ACID: 1.45 mg/dL
[3]
  ABSOLUTE BASOPHIL: 0 CELLS/uL
  ABSOLUTE EOSINOPHIL: 194 CELLS/uL
  ABSOLUTE LYMPHOCYTE: 11636 CELLS/uL
  ABSOLUTE MONOCYTE: 141 CELLS/uL
  ABSOLUTE SEGMENTED NEUTROPHIL: 1129 CELLS/uL
  BASOPHIL: 0%
  EOSINOPHIL: 1.33%
  ERYTHROCYTE COUNT: 5.5 x10E6/uL
  HEMATOCRIT: 34.9%
  HEMOGLOBIN: 13.63 G/DL
  LEUKOCYTE COUNT: 13.1 x10E3/uL
  LYMPHOCYTE: 89.33%
  MEAN CORPUSCULAR HEMOGLOBIN: 24.77 pg
  MEAN CORPUSCULAR HEMOGLOBIN CONCENTRATION: 39.07 G/DL
  MEAN CORPUSCULAR VOLUME: 63.5 fL
  MONOCYTE: 1%
  NEUTROPHIL: 8.33%
  NUCLEATED RED BLOOD CELLS: 0 /100WBC
  PLATELET COUNT: 1139.67 x10E3/uL
